Patent US10538491B2, “4,5-substituted picolinamide and picolinonitrile metabotropic glutamate receptor 2 negative allosteric modulators” (Vanderbilt University, priority 2015, dated 2020)

Molecular target: rat mGlu2 (Rattus norvegicus (Rat), UniProt P31421)
Test: mGlu2 Ca2+ flux assay
Assay type: cell-based
Settings: for IC50: Gα15 HEK293 cells stably expressing rat mGlu2, glutamate EC80, >10,000 = no plateau, >30,000 = no measurable activity; for remaining activity at 30 µM: amplitude of response in the presence of 30 μM test compound as percentage of maximal response to glutamate, read-out: rat mGlu2 Glu max
Method: Gα15 HEK293 cells stably expressing rat mGlu2 were plated in black-walled, clear-bottomed, poly-D-lysine coated 384-well plates in 20 μL of assay medium (DMEM containing 10% dialyzed FBS, 20 mM HEPES, and 1 mM sodium pyruvate) at a density of 12K cells/well. The cells were grown overnight at 37° C. in the presence of 5% CO2. The next day, medium was removed and the cells incubated with 20 μL of 2.3 μM Fluo-4, AM prepared as a 2.3 mM stock in DMSO and mixed in a 1:1 ratio with 10% (w/v) pluronic acid F-127 and diluted in assay buffer (Hank's balanced salt solution, 20 mM HEPES, and 2.5 mM probenecid) for 45 minutes at 37° C. Dye was removed, 20 μL of assay buffer was added, and the plate was incubated for 5 minutes at room temperature.
Ca^2+ flux was measured using the Functional Drug Screening System (FDSS7000, Hamamatsu, Japan). After establishment of a fluorescence baseline for about 3 seconds, the compounds of the present invention were added to the cells, and the response in cells was measured. 2.3 minutes later an EC20 concentration of the mGlu2 receptor agonist glutamate was added to the cells, and the response of the cells was measured for 1.9 minutes; an EC80 concentration of agonist was added and readings taken for an additional 1.7 minutes. All test compounds were dissolved and diluted to a concentration of 10 mM in 100% DMSO. Compounds were then serially diluted 1:3 in DMSO into 10 point concentration response curves, transferred to daughter plates, and further diluted into assay buffer to a 2× stock. Calcium fluorescence measures were recorded as fold over basal fluorescence; raw data was then normalized to the maximal response to glutamate. Antagonism of the agonist response of the mGlu2 receptor in the present invention was observed as a decrease in response to nearly maximal concentrations of glutamate in the presence of compound compared to the response to glutamate in the absence of compound.
The raw data file containing all time points was used as the data source in the analysis template. This was saved by the FDSS as a tab-delimited text file. Data were normalized using a static ratio function (F/F0) for each measurement of the total 360 values per well divided by each well's initial value. Data were then reduced to peak amplitudes (Max−Initial Min) using a time range that starts approximately 3 seconds prior to the glutamate EC80 addition and continues for approximately 90 seconds. This is sufficient time to capture the peak amplitude of the cellular calcium response. Individual amplitudes were expressed as % ECMax by multiplying each amplitude by 100 and then dividing the product by the mean of the amplitudes derived from the glutamate ECMax-treated wells. IC50 values for test compounds were generated by fitting the normalized values versus the log of the test compound concentration (in mol/L) using a 4 parameter logistic equation where none of the parameters were fixed. Each of the three values collected at each concentration of test compound were weighted evenly.
For NAMs, potency (IC50) and maximum response (% Glu Max), i.e. the amplitude of response in the presence of 30 μM test compound as a percentage of the maximal response to glutamate, are reported. […] Compounds with no measurable activity are designated as “>30,000 nM” since the top concentration of compound tested in the assay is 30 μM.

rat mGlu2, sequence (P31421 19-872): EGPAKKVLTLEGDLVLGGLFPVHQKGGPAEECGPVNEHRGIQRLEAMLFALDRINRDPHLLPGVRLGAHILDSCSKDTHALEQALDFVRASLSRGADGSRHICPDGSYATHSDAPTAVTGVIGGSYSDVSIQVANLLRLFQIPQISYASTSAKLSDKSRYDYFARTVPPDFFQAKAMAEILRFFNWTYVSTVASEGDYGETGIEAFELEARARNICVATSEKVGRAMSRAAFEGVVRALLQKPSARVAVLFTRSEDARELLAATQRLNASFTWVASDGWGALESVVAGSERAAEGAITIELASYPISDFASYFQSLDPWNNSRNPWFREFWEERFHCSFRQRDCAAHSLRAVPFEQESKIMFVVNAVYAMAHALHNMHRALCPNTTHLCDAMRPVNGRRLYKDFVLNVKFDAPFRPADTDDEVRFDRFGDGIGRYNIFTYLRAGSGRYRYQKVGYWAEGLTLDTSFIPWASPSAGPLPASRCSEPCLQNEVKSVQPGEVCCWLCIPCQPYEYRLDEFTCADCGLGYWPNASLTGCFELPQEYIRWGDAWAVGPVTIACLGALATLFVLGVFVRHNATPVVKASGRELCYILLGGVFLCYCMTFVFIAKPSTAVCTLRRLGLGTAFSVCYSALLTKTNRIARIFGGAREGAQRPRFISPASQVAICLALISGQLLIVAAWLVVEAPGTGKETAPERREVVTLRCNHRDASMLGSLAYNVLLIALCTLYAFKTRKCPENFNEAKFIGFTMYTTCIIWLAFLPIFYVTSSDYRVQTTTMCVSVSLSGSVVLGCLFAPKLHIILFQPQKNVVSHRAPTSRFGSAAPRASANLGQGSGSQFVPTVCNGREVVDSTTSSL

| SMILES | IC50 [nM] | remaining activity at 30 µM [%] |
| --- | --- | --- |
| NC(=O)c1cc(-c2ccc(F)cc2)c(OCc2ccccc2Br)cn1 [Compound 35, 5-((2-bromobenzyl)oxy)-4-(4-fluorophenyl)picolinamide] | 1110 | 1.55 |
| NC(=O)c1cc(-c2ccc(F)cc2)c(OCc2cc(Br)ccc2F)cn1 [Compound 36, 5-((5-bromo-2-fluorobenzyl)oxy)-4-(4-fluorophenyl)picolinamide] | 650 | 3.82 |
| COc1ccc(-c2cc(C(N)=O)ncc2OCc2cccnc2)c(F)c1 [Compound 39, 4-(2-fluoro-4-methoxyphenyl)-5-(pyridin-3-ylmethoxy)picolinamide] | 39 | 1.36 |
| NC(=O)c1cc(-c2ccc(C(F)(F)F)nc2)c(OCc2cccnc2)cn1 [Compound 40, 5′-(pyridin-3-ylmethoxy)-6-(trifluoromethyl)[3,4′-bipyridine]-2′-carboxamide] | > 30000 |  |
| CC(Oc1cnc(C(N)=O)cc1-c1ccc(F)cc1)c1cccnc1 (centres unmarked) [Compound 47, 4-(4-fluorophenyl)-5-(1-(pyridin-3-yl)ethoxy)picolinamide] | 2710 | 0.41 |
| CC(Oc1cnc(C(N)=O)cc1-c1ccc(F)cc1)c1ccncc1 (centres unmarked) [Compound 48, 4-(4-fluorophenyl)-5-(1-(pyridin-4-yl)ethoxy)picolinamide] | 504 | 1.4 |
| NC(=O)c1cc(-c2ccc(F)cc2)c(OCc2cncs2)cn1 [Compound 51, 4-(4-fluorophenyl)-5-(thiazol-5-ylmethoxy)picolinamide] | 263 | 1.01 |
| NC(=O)c1cc(-c2ccc(F)cc2)c(OCCOc2cccnc2)cn1 [Compound 54, 4-(4-fluorophenyl)-5-(2-(pyridin-3-yloxy)ethoxy)picolinamide] | 1370 | 1.35 |
| CN(CCOc1cnc(C(N)=O)cc1-c1ccc(F)cc1)c1ccnc(C(F)(F)F)c1 [Compound 55, 4-(4-fluorophenyl)-5-(2-(methyl(2-(trifluoromethyl)pyridin-4-yl)amino)ethoxy)picolinamide] | 1580 | 4.02 |
| NC(=O)c1cc(-c2ccc(F)cc2)c(OC2CCN(c3ccnc(C(F)(F)F)c3)CC2)cn1 [Compound 56, 4-(4-fluorophenyl)-5-((1-(2-(trifluoromethyl)pyridin-4-yl)piperidin-4-yl)oxy)picolinamide] | 4190 | 4.5 |
| NC(=O)c1cc(-c2ccc(F)cc2)c(OC2CCN(c3ccnc(C(F)(F)F)c3)C2)cn1 (centres unmarked) [Compound 57, 4-(4-fluorophenyl)-5-((1-(2-(trifluoromethyl)pyridin-4-yl)pyrrolidin-3-yl)oxy)picolinamide] | 2120 | 2.39 |
| NC(=O)c1cc(-c2ccc(F)cc2)c(OC2CN(c3ccnc(C(F)(F)F)c3)C2)cn1 [Compound 58, 4-(4-fluorophenyl)-5-((1-(2-(trifluoromethyl)pyridin-4-yl)azetidin-3-yl)oxy)picolinamide] | 4140 | 4.3 |
| Cc1ccc(OC(C)COc2cnc(C#N)cc2-c2ccc(F)cc2)cn1 (centres unmarked) [Compound 62, 4-(4-fluorophenyl)-5-(2-((6-methylpyridin-3-yl)oxy)propoxy)picolinonitrile] | 4630 | 35.8 |
| CC(COc1cnc(C#N)cc1-c1ccc(F)cc1)Oc1ccnc(C(F)(F)F)c1 (centres unmarked) [Compound 63, 4-(4-fluorophenyl)-5-(2-((2-(trifluoromethyl)pyridin-4-yl)oxy)propoxy)picolinonitrile] | > 10000 | 30.7 |
| Cc1ncc(OCCCOc2cnc(C#N)cc2-c2ccc(F)cc2)cn1 [Compound 64, 4-(4-fluorophenyl)-5-(3-((2-methylpyrimidin-5-yl)oxy)propoxy)picolinonitrile] | > 30000 |  |
| N#Cc1cc(-c2ccc(F)cc2)c(OCCCOc2cccnc2)cn1 [Compound 65, 4-(4-fluorophenyl)-5-(3-(pyridin-3-yloxy)propoxy)picolinonitrile] | > 10000 | 68.8 |

The remaining lines, values ahead:

| IC50 [nM] | remaining activity at 30 µM [%] | SMILES |
| --- | --- | --- |
| 1590 | 10.1 | NC(=O)c1cc(-c2ccc(F)cc2)c(OCc2cccc(Br)c2)cn1 [Compound 34, 5-((3-bromobenzyl)oxy)-4-(4-fluorophenyl)picolinamide] |
| 1470 | 3.54 | NC(=O)c1cc(-c2ccc(F)cc2)c(OCc2cc(F)cc(Br)c2)cn1 [Compound 37, 5-((3-bromo-5-fluorobenzyl)oxy)-4-(4-fluorophenyl)picolinamide] |
| 507 ± 123 | 5.84 ± 1.16 | NC(=O)c1cc(-c2ccc(F)cc2)c(OCc2cccnc2)cn1 [Compound 38, 4-(4-fluorophenyl)-5-(pyridin-3-ylmethoxy)picolinamide] |
| 343 | 1.59 | Cc1ccc(COc2cnc(C(N)=O)cc2-c2ccc(F)cc2)cn1 [Compound 41, 4-(4-fluorophenyl)-5-((6-methylpyridin-3-yl)methoxy)picolinamide] |
| 266 | 2.2 | COc1ccc(COc2cnc(C(N)=O)cc2-c2ccc(F)cc2)cn1 [Compound 42, 4-(4-fluorophenyl)-5-((6-methoxypyridin-3-yl)methoxy)picolinamide] |
| 717 | 0.74 | NC(=O)c1cc(-c2ccc(F)cc2)c(OCc2ccc(C(F)(F)F)nc2)cn1 [Compound 43, 4-(4-fluorophenyl)-5-((6-(trifluoromethyl)pyridin-3-yl)methoxy)picolinamide] |
| 239 | 0.42 | NC(=O)c1cc(-c2ccc(F)cc2)c(OCc2ccncc2)cn1 [Compound 44, 4-(4-fluorophenyl)-5-(pyridin-4-ylmethoxy)picolinamide] |
| 195 | 1.17 | Cc1cc(COc2cnc(C(N)=O)cc2-c2ccc(F)cc2)ccn1 [Compound 45, 4-(4-fluorophenyl)-5-((2-methylpyridin-4-yl)methoxy)picolinamide] |
| 204 | 2.17 | COc1cc(COc2cnc(C(N)=O)cc2-c2ccc(F)cc2)ccn1 [Compound 46, 4-(4-fluorophenyl)-5-((2-methoxypyridin-4-yl)methoxy)picolinamide] |
| 1470 | -0.08 | NC(=O)c1cc(-c2ccc(F)cc2)c(OCc2cccnn2)cn1 [Compound 49, 4-(4-fluorophenyl)-5-(pyridazin-3-ylmethoxy)picolinamide] |
| 129 | 1.41 | NC(=O)c1cc(-c2ccc(F)cc2)c(OCc2ccc3nccn3c2)cn1 [Compound 50, 4-(4-fluorophenyl)-5-(imidazo[1,2-a]pyridin-6-ylmethoxy)picolinamide] |
| 66 | 0.93 | Cn1ccc(COc2cnc(C(N)=O)cc2-c2ccc(F)cc2)n1 [Compound 52, 4-(4-fluorophenyl)-5-((1-methyl-1H-pyrazol-3-yl)methoxy)picolinamide] |
| 1000 | -0.46 | Cn1cc(COc2cnc(C(N)=O)cc2-c2ccc(F)cc2)cn1 [Compound 53, 4-(4-fluorophenyl)-5-((1-methyl-1H-pyrazol-4-yl)methoxy)picolinamide] |
